# Measured values as given in PubChem BioAssay (NCI).
# Values joined by “and” are separate entries in the source; they are usually repeats but may differ in a detail not shown here. Identical values can stand only once.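 The compound was tested at five concentrations on cells cultured in 96-well plates, with a 48-hour exposure period. Abbreviation: GI50, concentration required for 50% inhibition of growth. TGI marks complete inhibition of growth.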
# Test system: SF-539 CNS
# Assay: growth of human tumour cells (NCI), 48 h
SMILES,GI50,TGI
COc1cc2c3c(n(CCCCOC(=O)C(Cl)(Cl)Cl)c(=O)c2cc1OC)-c1cc2c(cc1C3=O)OCO2,60.1 µM,> 100 µM
CCOC(=O)c1c(C)nc2c(c1N)/C(=C/c1ccc(OC)cc1)C(=O)N2Cc1ccc(F)cc1,0.189 µM,0.457 µM
C/C(=N\Nc1ccc(Cl)cn1)c1ccccn1,0.229 µM,3.49 µM
COc1cc(NS(=O)(=O)c2ccc(-c3cnc(C4CC4)o3)cc2)ccc1F,0.274 µM,2.18 µM
CC(C)CCCC(=O)CCCCCCC(=O)CCN(O)C(=O)C(N)CO (stereo not drawn),,37.4 µM
Cc1ccc(NC(=O)NCCCOc2ccc(N3C(N)=NC(N)=NC3(C)C)cc2Cl)cc1S(=O)(=O)F,8.84 µM,81.2 µM
CC[CH2][Sn]([Cl])([Cl])[CH2]CC.Oc1ccccc1C=NCCN=Cc1ccccc1O,10.5 µM,24.2 µM
COc1ccccc1Cn1cc2c(c1-c1ccccc1)CCc1cnoc1-2,2.57 µM,
COc1cc2c(c(OC)c1OC)C(=O)[C@@H]1c3ccc([N+](=O)[O-])cc3C(=O)N(CCCBr)[C@H]21,11.8 µM,38.7 µM
Nc1ncn(C2CC(O)C(CO)O2)c(=O)n1 (stereo not drawn),,158 µM
C/C=C(\C)CC/C=C/CO[Si](C)(C)C(C)(C)C,,> 100 µM
COc1cc2c3c(n(C)c(=O)c2cc1OC)-c1cc2c(cc1/C3=C\CNCCCN)OCO2,0.834 µM,7.29 µM
O=C(/C=C\n1cnc(-c2cc(C(F)(F)F)cc(C(F)(F)F)c2)n1)NNc1cnccn1,0.0286 µM,1.12 µM
NCCCn1c2c(c3ccc([N+](=O)[O-])cc3c1=O)C(=O)c1cc(Br)ccc1-2,0.0132 µM and 0.0109 µM,0.0699 µM and 0.0472 µM
CN1C(=O)c2ccccc2NC(=O)C12O[C@@H]2c1cccc(O)c1 (stereo partly drawn),,> 100 µM

# Test system: NCI/ADR-RES ovarian
# Assay: growth of human tumour cells (NCI), 48 h
SMILES,TGI [µM],GI50 [µM]
Cn1cnc([N+](=O)[O-])c1[Se]c1nc(N)nc2c1ncn2C1OC(CO)C(O)C1O (stereo not drawn),> 100,
C=C(C)C1CCC2(C(=O)O)CCC3(C)C(CCC4C5(C)CCC(OC(=O)NCc6ccccc6)C(C)(C)C5CCC43C)C12 (stereo not drawn),> 100,3.82
Clc1ccc(-c2c(C3=NCCCN3)nnn2-c2ccc(Cl)cc2)cc1,> 86.4,
C=C[C@H]1C[C@@H]2C[C@@H]3[C@H]4C/C=C\C(=O)NCCCC5NC(=O)C(=C(O)/C=C/[C@@H]4CC(=O)[C@H]3[C@@H]2[C@H]1C)C5=O (stereo partly drawn),0.365,0.192
Cc1ccc(C(=O)Nc2ccc(CN3CCN(C)CC3)c(C(F)(F)F)c2)cc1C#Cc1cnc(N)c2ccccc12,1.82,0.594
C=C1CC[C@@H]2[C@](C)(COC(C)=O)[C@H](OC(C)=O)CC[C@@]2(C)[C@@H]1CC(Nc1ccc(S(=O)(=O)Nc2ncccn2)cc1)C1=CCOC1=O (stereo partly drawn),5.28,1.83
Cn1c2ccccc2c2c3[nH]c(=O)[nH]c(=O)c3c3c4ccccc4n(C)c3c21,17,2.89
O=C1/C(=C/c2ccc(O)cc2)CSc2ccc(Cl)cc21,> 100,18.7
Fc1ccc(-c2nn3ncccc3c2-c2ccnc(Nc3ccc4c(c3)OCCO4)n2)cc1,> 25,5.73
CC1(C)N=C(N)N=C(N)N1c1ccc(OCc2ccc(S(=O)(=O)F)c(Cl)c2)c(Cl)c1,> 100,60
CO[C@H]1C=C[C@@]23c4cc5c(cc4CO[C@]2(O)CN(C)[C@H]3C1)OCO5,> 100,
COC(=O)c1c(C)[nH]c(/C=C2\N=C(c3ccc[nH]3)C=C2OC)c1C,4.6,0.109
COc1cc2c3c(n(CCCCOC(=O)C(Cl)(Cl)Cl)c(=O)c2cc1OC)-c1cc2c(cc1C3=O)OCO2,> 100,82.7
CCOC(=O)c1c(C)nc2c(c1N)/C(=C/c1ccc(OC)cc1)C(=O)N2Cc1ccc(F)cc1,,0.299
C/C(=N\Nc1ccc(Cl)cn1)c1ccccn1,> 31.6,0.037
COc1cc(NS(=O)(=O)c2ccc(-c3cnc(C4CC4)o3)cc2)ccc1F,10.2,0.339
CC(C)CCCC(=O)CCCCCCC(=O)CCN(O)C(=O)C(N)CO (stereo not drawn),38.4,
Cc1ccc(NC(=O)NCCCOc2ccc(N3C(N)=NC(N)=NC3(C)C)cc2Cl)cc1S(=O)(=O)F,> 100,> 100
CC[CH2][Sn]([Cl])([Cl])[CH2]CC.Oc1ccccc1C=NCCN=Cc1ccccc1O,37.8,16
